From PMC8703317, “2-(Piperidin-4-yl)acetamides as Potent Inhibitors of Soluble Epoxide Hydrolase with Anti-Inflammatory Activity” (Pharmaceuticals, 2021)

How the values were obtained:
[1] = system: microglial BV2 cells activated with LPS; experiment: nitric oxide generation (nitrite, Griess) in LPS-activated BV2 microglial cells; type: cell-based; details: compound at 100 µM, LPS, 24 h, percentage of LPS value
Protocol: Inflammatory changes were determined by the measure of nitric oxide generation, as the endpoint of iNOS activation, in microglial BV2 cells. BV2 cells (HyperCLDB, Banca Biologica e Cell Factory, ICLC ATL 03001) were grown in RPMI 1640 medium, supplemented with L-glutamine 2 mM, gentamycin 50 µM and 10% FBS. For experiments, cells were seeded in 96-well plates at 2 × 10^5 cells/mL, 100 µL/well. […] After 1 h of incubation, the cells were treated with the pro-inflammatory chemical LPS (0.1 μg/mL or 1 μg/mL; strain E. coli […], Sigma-Aldrich, L-2654, batch #120M4028) and further incubated for 24 h. TPPU at 100 µM was also assayed as a reference anti-inflammatory compound. DMSO 0.1% was used as vehicle. Cells were maintained at 37 °C in a humidified incubator with 5% CO2 throughout the procedures. Nitric oxide released to the culture medium was measured by the colorimetric Griess reaction that detects nitrite (NO2^–), a stable reaction product of nitric oxide and molecular oxygen. Briefly, 50 µL of conditioned medium were incubated with 50 µL of Griess reagent for 10 min at room temperature. Optical density was measured at 540 nm. Nitrite concentration was determined from a sodium nitrite standard curve. Results were normalized by cell protein content in the well and expressed as a percentage of the average maximal values given by the pro-inflammatory agent (LPS 1 µg/mL). Each treatment was performed in 3–5 wells and the whole experiment was repeated 3–4 times in cultures of different cell passage. Data were analyzed by ANOVA followed by Tukey’s multiple comparisons test.

human sEH = molecular target: T1, human sEH (Homo sapiens, UniProt P34913); experiment: fluorescent-based sEH inhibition assay, recombinant human sEH; type: biochemical; details: baculovirus expressed recombinant human sEH, average of three replicates
T1 construct: made in house; host or cells: baculovirus expression system (insect cells implied)
T1 sequence (P34913 1-555): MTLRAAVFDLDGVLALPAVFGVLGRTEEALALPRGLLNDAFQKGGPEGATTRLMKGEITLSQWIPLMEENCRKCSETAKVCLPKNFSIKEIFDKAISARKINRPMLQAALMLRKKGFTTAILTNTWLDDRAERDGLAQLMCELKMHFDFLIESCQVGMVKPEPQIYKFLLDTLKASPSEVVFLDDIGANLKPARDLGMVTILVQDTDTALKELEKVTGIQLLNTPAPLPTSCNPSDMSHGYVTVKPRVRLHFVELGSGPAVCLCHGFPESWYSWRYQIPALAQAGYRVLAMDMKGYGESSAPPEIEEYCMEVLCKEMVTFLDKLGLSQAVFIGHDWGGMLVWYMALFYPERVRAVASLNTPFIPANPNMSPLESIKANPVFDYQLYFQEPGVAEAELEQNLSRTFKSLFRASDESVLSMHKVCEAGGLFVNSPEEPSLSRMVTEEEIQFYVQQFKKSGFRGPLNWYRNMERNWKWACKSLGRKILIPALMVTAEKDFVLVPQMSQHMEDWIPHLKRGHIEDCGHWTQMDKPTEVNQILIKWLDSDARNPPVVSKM
Protocol: (§1) The potency of all the new compounds as inhibitors of the human and murine sEH was tested using a previously reported sensitive fluorescent-based assay using baculovirus expressed recombinant human and mouse sEH [28].

murine sEH = molecular target: T2, murine sEH (Mus musculus, UniProt P34914); experiment: fluorescent-based sEH inhibition assay, recombinant mouse sEH; type: biochemical; details: baculovirus expressed recombinant mouse sEH, average of three replicates
T2 construct: made in house; host or cells: baculovirus expression system (insect cells implied)
T2 sequence (P34914 1-554): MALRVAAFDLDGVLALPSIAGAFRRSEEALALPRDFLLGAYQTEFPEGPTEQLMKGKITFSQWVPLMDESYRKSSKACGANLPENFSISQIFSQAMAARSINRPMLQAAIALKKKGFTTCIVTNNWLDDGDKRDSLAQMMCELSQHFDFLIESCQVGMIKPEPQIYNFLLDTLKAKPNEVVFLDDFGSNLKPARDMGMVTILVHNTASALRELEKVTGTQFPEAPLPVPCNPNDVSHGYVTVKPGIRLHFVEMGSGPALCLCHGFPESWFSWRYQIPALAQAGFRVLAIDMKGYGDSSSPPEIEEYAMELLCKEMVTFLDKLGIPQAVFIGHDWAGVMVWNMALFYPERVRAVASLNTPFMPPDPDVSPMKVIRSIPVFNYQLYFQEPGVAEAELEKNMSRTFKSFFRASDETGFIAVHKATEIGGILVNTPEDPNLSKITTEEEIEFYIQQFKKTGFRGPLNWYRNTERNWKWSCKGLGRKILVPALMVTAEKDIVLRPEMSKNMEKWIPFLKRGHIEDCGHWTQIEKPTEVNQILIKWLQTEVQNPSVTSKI
Protocol: as §1

[2] = microsomal stability, human microsomes; type: in vitro ADME; details: pooled human microsomes, pH 7.4; 60 min incubation with human microsomes, NADPH, 37 °C
Protocol: (§2) The human and murine pooled microsomes employed were purchased from Tebu-Xenotech (Barcelona, Spain). The compound was incubated at 37 °C with the microsomes in a 50 mM phosphate buffer (pH = 7.4) containing 3 mM MgCl2, 1 mM NADP, 10 mM glucose-6-phosphate and 1 U/mL glucose-6-phosphate-dehydrogenase. Samples (75 µL) were taken from each well at 0, 10, 20, 40 and 60 min and transferred to a plate containing 4 °C 75 µL acetonitrile and 30 µL of 0.5% formic acid in water were added for improving the chromatographic conditions. The plate was centrifuged (46000 g, 30 min) and supernatants were taken and analyzed in a UPLC-MS/MS (Xevo-TQD, Waters) by employing a BEH C18 column and an isocratic gradient of 0.1% formic acid in water: 0.1% formic acid acetonitrile (60:40). The metabolic stability of the compounds was calculated from the logarithm of the remaining compounds at each of the time points studied.

[3] = microsomal stability, mouse microsomes; type: in vitro ADME; details: pooled murine microsomes, pH 7.4; 60 min incubation with mouse microsomes, NADPH, 37 °C
Protocol: as §2

[4] = set-up: method as in PMID 33945278; details: 60 min incubation with human microsomes, NADPH, 37 °C; cited from earlier work
[5] = set-up: method as in PMID 33945278; details: cited from earlier work; for Microsomal Stability Mouse % Remaining at 1 h: 60 min incubation with mouse microsomes, NADPH, 37 °C

Row | SMILES | nitric oxide release induced by LPS, reduced to [1] | IC50 (human sEH) | IC50 (murine sEH) | remaining at 1 h [2] | remaining at 1 h [3] | melting point | Microsomal Stability Human % Remaining at 1 h [4] | Microsomal Stability Mouse % Remaining at 1 h [5] | microsomal stability (% remaining at 1 h) mouse ([5]; Figure 2 legend)
1 | CCC(=O)N1CCC(NC(=O)Nc2ccc(OC(F)(F)F)cc2)CC1 [TPPU, reference compound] | approximately 50% | – | – | – | – | – | – | – | –
2 | N#Cc1ccc(N2CCC(CC(=O)NC34CC5CC(F)(CC(C3)c3ccccc35)C4)CC2)cc1 [10b, 2-(1-(4-Cyanophenyl)piperidin-4-yl)-N-(9-fluoro-5,6,8,9,10,11-hexahydro-7H-5,9:7,11-dimethanobenzo[9]annulen-7-yl)acetamide] | – | 3.4 nM | 0.4 nM | 0% | 0.1% | 180 to 181 °C | – | – | –
3 | CC12CC3CC(NC(=O)CC4CCN(Cc5ccccc5)CC4)(CC(C1)c1ccccc13)C2 [6g, 2-(1-Benzylpiperidin-4-yl)-N-(9-methyl-5,6,8,9,10,11-hexahydro-7H-5,9:7,11-dimethanobenzo[9]annulen-7-yl)acetamide] | – | 37.5 nM | 3.3 nM | 0.1% | 0.1% | – | – | – | –
4 | CC(C)S(=O)(=O)N1CCC(CC(=O)NC23CC4CC(F)(CC(C2)c2ccccc24)C3)CC1 [6c, N-(9-Fluoro-5,6,8,9,10,11-hexahydro-7H-5,9:7,11-dimethanobenzo[9]annulen-7-yl)-2-(1-(isopropylsulfonyl)piperidin-4-yl)acetamide] | – | 1.6 nM | 0.4 nM | 5.5% | 5.1% | 192 to 193 °C | – | – | –
5 | O=C(NC12CC3CC(F)(CC(C1)c1ccccc13)C2)N[C@H]1CC[C@H](Oc2ccc(C(=O)O)cc2)CC1 [11b] | – | – | – | – | – | – | 77% | 36% | –
6 | O=C(CC1CCN(Cc2ccccc2)CC1)NC12CC3CC(F)(CC(C1)c1ccccc13)C2 [6h, 2-(1-Benzylpiperidin-4-yl)-N-(9-fluoro-5,6,8,9,10,11-hexahydro-7H-5,9:7,11-dimethanobenzo[9]annulen-7-yl)acetamide] | – | 21.4 nM | 12.9 nM | 0.3% | 0.1% | 164 to 165 °C | – | – | –
7 | O=C(CC1CCN(c2ccc(C(=O)O)cc2)CC1)NC12CC3CC(Cl)(CC(C1)c1ccccc13)C2 [10e] | – | 1.7 nM | 0.7 nM | 52% | 6% | – | – | – | –
8 | CC(C)S(=O)(=O)N1CCC(CC(=O)NC23CC4CC(C)(CC(C2)c2ccccc24)C3)CC1 [6b, 2-[1-(Isopropylsulfonyl)piperidin-4-yl]-N-(9-methyl-5,6,8,9,10,11-hexahydro-7H-5,9:7,11-dimethanobenzo[9]annulen-7-yl)acetamide] | – | 30.2 nM | 0.4 nM | 0% | 0% | – | – | – | –
9 | CC(=O)N1CCC(NC(=O)NC23CC4CC(C)(CC(C2)c2ccccc24)C3)CC1 [compound 1, reference compound] | – | – | – | 1% | 1% | – | – | – | 0.5%
10 | CC(=O)c1ccc(N2CCC(CC(=O)NC34CC5CC(F)(CC(C3)c3ccccc35)C4)CC2)cc1 [10a, 2-(1-(4-Acetylphenyl)piperidin-4-yl)-N-(9-fluoro-5,6,8,9,10,11-hexahydro-7H-5,9:7,11-dimethanobenzo[9]annulen-7-yl)acetamide] | – | 0.6 nM | 0.7 nM | 0.1% | 0.1% | 229 to 230 °C | – | – | –
11 | O=C(CC1CCN(c2ccc(C(=O)O)cc2C2CC2)CC1)NC12CC3CC(F)(CC(C1)c1ccccc13)C2 [10d, 3-Cyclopropyl-4-(4-(2-((9-fluoro-5,6,8,9,10,11-hexahydro-7H-5,9:7,11-dimethanobenzo[9]annulen-7-yl)amino)-2-oxoethyl)piperidin-1-yl)benzoic Acid] | – | 0.4 nM | 0.2 nM | 11% | 2% | 190 to 191 °C | – | – | –
12 | CC(=O)N1CCC(CC(=O)NC23CC4CC(C)(CC(C2)c2ccccc24)C3)CC1 [6a, 2-(1-Acetylpiperidin-4-yl)-N-(9-methyl-5,6,8,9,10,11-hexahydro-7H-5,9:7,11-dimethanobenzo[9]annulen-7-yl)acetamide] | – | 34.5 nM | 0.4 nM | 0.3% | 0% | – | – | – | –
13 | CC(C)S(=O)(=O)N1CCC(CC(=O)NC23CC4CC(Cl)(CC(C2)c2ccccc24)C3)CC1 [6d, N-(9-Chloro-5,6,8,9,10,11-hexahydro-7H-5,9:7,11-dimethanobenzo[9]annulen-7-yl)-2-(1-(isopropylsulfonyl)piperidin-4-yl)acetamide] | – | 1 nM | 0.4 nM | 7% | 1.4% | 163 to 164 °C | – | – | –
14 | O=C(NC12CC3CC(Cl)(CC(C1)c1ccccc13)C2)N[C@H]1CC[C@H](Oc2ccc(C(=O)O)cc2)CC1 [11c] | – | – | – | – | – | – | 89% | 60% | –
15 | CC12CC3CC(NC(=O)N[C@H]4CC[C@H](Oc5ccc(C(=O)O)cc5)CC4)(CC(C1)c1ccccc13)C2 [11a] | – | – | – | – | – | – | 70% | 10% | –
16 | [2H]C12CC3CC(NC(=O)CC4CCN(S(=O)(=O)C(C)C)CC4)(CC(C1)c1ccccc13)C2 [6f, N-(5,6,8,9,10,11-Hexahydro-7H-5,9:7,11-dimethanobenzo[9]annulen-7-yl-9-d)-2-(1-(isopropylsulfonyl)piperidin-4-yl)acetamide] | – | 2.4 nM | 0.4 nM | 1.3% | 0.5% | 138 to 139 °C | – | – | –
17 | CC(C)S(=O)(=O)N1CCC(CC(=O)NC23CC4CC(C2)c2ccccc2C(C4)C3)CC1 [6e, N-(5,6,8,9,10,11-Hexahydro-7H-5,9:7,11-dimethanobenzo[9]annulen-7-yl)-2-(1-(isopropylsulfonyl)piperidin-4-yl)acetamide] | – | 2.8 nM | 0.5 nM | 0.6% | 0.2% | 136 to 137 °C | – | – | –
